Assay results: paper PMC4592236, “Pathogen- and Host-Directed Antileishmanial Effects Mediated by Polyhexanide (PHMB)” (PLoS Neglected Tropical Diseases, 2015)
Structures can show the parent of a compound that is named as a salt. Where two headings read alike, the source gives them in different places.

Key:
[1] = system: intracellular L. major amastigotes; assay: microbe, parasite or virus in culture; assay type: cell-based, Leishmania major; settings: for IC50: intracellular amastigotes in BMDM, luciferase; for IC50 (μM) amastigotes: Table 2, without dynasore, two independent experiments
Description: The assay is based on bioluminescence measurement of firefly luciferase, which catalyzes the formation of light from ATP and luciferin. The virulent luciferase-transgenic (Luc-tg) L. major strain containing a firefly luciferase reporter gene was maintained by continuous passage in female BALB/c mice and was grown in 96-well blood agar cultures at 27°C, 5% CO2, and 95% humidity. A luciferase-transgenic L. major strain was used to infect BMDM according to our recently established protocol. Briefly, BMDM numbers were adjusted to 2 × 10^5, cultured in 96-well plates and incubated for 4 h to allow adherence to the surface. The promastigote number was adjusted to 3 × 10^6 parasites per ml to achieve an infection rate of 1:15. Then, infection was made by discarding the supernatant of the cultured cells and replacing it with an equal volume of complete RPMI medium containing the promastigotes' suspension. After incubating the infected BMDM (37°C, 5% CO2) for 24 h to allow full differentiation of the promastigotes into amastigotes, the medium containing the extracellular parasites was removed and the wells were washed three times with the same RPMI medium. Five serial dilutions of each substance (1:5) in the same fresh RPMI medium were added to the infected BMDM in duplicate with the appropriate controls. After further 24 h of incubation at 37°C and 5% CO2, the infected BMDM were lysed with a luciferin-containing buffer (Britelite, PerkinElmer, Germany) and luminescence was measured with a luminescence plate reader, Victor X Light 2030 luminometer (PerkinElmer). The IC50 values of the compounds against intracellular amastigotes were calculated based on the intercept theorem, as previously described.

L. major promastigotes [2] = assay: AlamarBlue assay against L. major promastigotes; assay type: cell-based, Leishmania major; settings: for IC50 (μM) promastigotes: Table 2, without dynasore
Description: Cytotoxicities of the different compounds or formulations against mammalian cell (BMDM or 293T epithelial cells) and L. major promastigotes were determined as previously described. Briefly, 4 × 10^4 mammalian cells or 10 × 10^6 virulent L. major promastigotes (MHOM/IL/81/FE/BNI strain) in the log phase of growth were added to each well of 96-well plates and cultured with five increasing concentrations of each compound at 37°C or 27°C for 24 h, respectively. Standard antileishmanial drugs including amphotericin B (A2942), pentamidine isothionate (P0547) and paromomycin sulfate (P9297) from Sigma-Aldrich (Deisenhofen, Germany) and miltefosine (1-hexadecylphosphorylcholine) (Cayman Chemical Company, Ann Arbor, MI, USA) were used as positive controls. The AlamarBlue dye (Trinova Biochem GmbH, Giessen, Germany) was added to each well at 10% concentration and incubated for a further 48 h. The optical density (OD) was then measured by using Multiskan Ascent ELISA reader at a wavelength 550 nm and 630 nm. The OD value or % dye reduction is proportional to viable cell/parasite number and was used for IC50 calculation based on the intercept theorem.

BMDM [3] = assay: AlamarBlue cytotoxicity assay, BMDM; assay type: cell-based, BALB/c mice; settings: average of 3–6 independent experiments, read-out: IC50 BMDMs
BMDM [4] = assay: Cytokine production by BMDM (ELISA); assay type: cell-based, BALB/c mice; settings: BMDM supernatants, 48 h
Description: BMDM were generated from female BALB/c mice as described above in cell culture. 1 × 10^6 BMDM were seeded in a final volume of 0.5 ml in 24-well plates, infected with L. major promastigotes at 15:1 parasite to BMDM ratio, washed and incubated at 37°C for 30 min in complete RPMI medium containing CpG ODN (15 μg/ml). PHMB, CpG ODN or PHMB/CpG ODN polyplexes were added to the pre-activated or control cells and further incubated for 48 h. The supernatants were collected and IL-6, IL-10, IL-4 or TNF-α (Biosciences, Wiesbaden, Germany) concentrations were measured by sandwich ELISA while IL-12p70 was measured by using the IL-12p70 ELISA Ready-SET-Go kit from eBioscience according to the suppliers' instructions.

BMDM [5] = assay: Cellular uptake by BMDM (flow cytometry); assay type: cell-based, BALB/c mice; settings: pre-incubation with inhibitor 30 min, then 4 h
Description: PI and YO-PRO-1 dyes (Life Technologies, Darmstadt, Germany) uptake by the promastigotes was measured by MACS Quant Analyzer (Miltenyi Biotec, Bergisch Gladbach, Germany), and used to indicate membrane integrity. […] L. major promastigotes were treated with 2 μM PHMB for indicated time points and then washed at 3,000 × g for 10 min. The samples were stained by incubating with PI or YO-PRO-1 dyes for 15 min in the dark at RT according to manufacturer’s instructions. The samples were then washed and a total of 100,000 events were immediately acquired by flow cytometry. Similarly, adherent BMDM cells were allowed to take-up fluorescent PHMB (PHMB-FITC conjugate) in the presence or absence of five different pharmacological inhibitors (cytochalasin D (C8273, used at 5 μg/ml), wortmannin (W1628, used at 12.85 μg/ml), chlorpromazine hydrochloride (C8138, used at 10 μg/ml), ikarugamycin (SML0188, used at 1 μM) and dynasore (D7693, used at 25.8 μg/ml), Sigma-Aldrich, Deisenhofen, Germany). PHMB (Polyhexamethylene biguanide; CAS# 27083-27-8; alternative chemical names: polyhexanide, polyamino propylbiguanide, Mw = 2780 g/mol) was provided by the laboratory of Dr. Liam Good and by Tecrea Ltd, London UK (www.tecrea.co.uk), at stock concentrations of 1 mg/ml and 200 mg/ml. […] The data were analyzed using FlowJo software (Tree Star Inc., CA, USA).

L. major promastigotes [6] = assay: PHMB-FITC uptake into promastigotes (flow cytometry); assay type: cell-based, Leishmania major; settings: PHMB-FITC 0.35 μM
[7] = Leishmania major, AlamarBlue, average of 3–6 independent experiments
[8] = AlamarBlue, average of 3–6 independent experiments
[9] = concentration of PHMB within polyplexes
[10] = concentration of PHMB within polyplexes, listed as Dynasore (80 μM)
[11] = with dynasore (80 μM), concentration of PHMB within polyplexes

`N=C(N)c1ccc(OCCCCCOc2ccc(C(=N)N)cc2)cc1` [Pentamidine, pentamidine isothionate] gave an IC50 ([1]; Leishmania major) of 6.38 ± 2.4 µM, an IC50 (L. major promastigotes [2]; [7]) of 16.2 ± 3.1 µM and an IC50 (BMDM [3]; Mus musculus, BMDM) of 128 ± 24 µM.

With “CpG ODN: unmethylated cytosine-phosphate-guanine oligodeoxynucleotide 1668, sequence TCCATGACGTTCCTGATGCT (DNA, backbone not given here)” the IC50 [1] was greater than 150 µM, the “cytokine production (IL-6, IL-10, IL-12)” value (BMDM [4]) was “production of all cytokines tested increased with increasing doses” and the IC50 (L. major promastigotes [2]; [8]) was greater than 150 µM. The IC50 promastigotes (L. major promastigotes [2]; [8]) was “did not show activity” and the IC50 (BMDM [3]) was greater than 150 µM.

`C[C@@H]1[C@H](O)[C@@H](C)/C=C/C=C/C=C/C=C/C=C/C=C/C=C/[C@H](O[C@@H]2O[C@H](C)[C@@H](O)[C@H](N)[C@@H]2O)C[C@@H]2O[C@](O)(C[C@@H](O)C[C@@H](O)[C@H](O)CC[C@@H](O)C[C@@H](O)CC(=O)O[C@H]1C)C[C@H](O)[C@H]2C(=O)O` [Amphotericin B, amphotericin B] gave an IC50 ([1]; Leishmania major) of 0.099 ± 0.05 µM, an IC50 (L. major promastigotes [2]; [7]) of 0.42 ± 0.5 µM and an IC50 (BMDM [3]; Mus musculus, BMDM) greater than 21 µM.

`CCCCCCCCCCCCCCCCOP(=O)([O-])OCC[N+](C)(C)C` [Miltefosine, 1-hexadecylphosphorylcholine] was tested, and the IC50 ([1]; Leishmania major) was 54 ± 8.1 µM, the IC50 (L. major promastigotes [2]; [7]) was 28.3 ± 5.2 µM and the IC50 (BMDM [3]; Mus musculus, BMDM) was 75.6 ± 10.9 µM.

`NC[C@@H]1O[C@H](O[C@H]2[C@@H](O)[C@H](O[C@@H]3[C@@H](O)[C@H](N)C[C@H](N)[C@H]3O[C@H]3O[C@H](CO)[C@@H](O)[C@H](O)[C@H]3N)O[C@@H]2CO)[C@H](N)[C@@H](O)[C@@H]1O` [Paromomycin, paromomycin sulfate] gave an IC50 ([1]; Leishmania major) of 1500 ± 112 µM, an IC50 (L. major promastigotes [2]; [7]) greater than 500 µM and an IC50 (BMDM [3]; Mus musculus, BMDM) greater than 900 µM.

In the case of `O=C(N/N=C/c1ccc(O)c(O)c1)c1cc2ccccc2cc1O` [Dynasore, dynasore], the “inhibition of PHMB-FITC uptake by BMDM” value (BMDM [5]) is reported as 80%, the “IC50 (μM) amastigotes” value [1, 9] is reported as “did not display cytotoxicity” and the “IC50 (μM) amastigotes” value [1, 10] is reported as “No activity”. The “IC50 amastigotes + dynasore (μM)” value [1, 11] was “No activity”, the “inhibition of PHMB-FITC uptake into promastigotes” value (L. major promastigotes [6]) was “more than 98%” and the “IC50 (μM) promastigotes” value (L. major promastigotes [2]; [9]) was “did not display cytotoxicity”. The “IC50 (μM) promastigotes” value (L. major promastigotes [2]; [10]) was “No activity” and the “IC50 promastigotes + dynasore (μM)” value (L. major promastigotes [2]; [11]) was “No activity”.
